The source of these data is patent US20180000719A1, “A SKIN LIGHTENING COMPOSITION COMPRISING NIACINAMIDE AND ILOMASTAT” (Conopco, Inc., d/b/a UNILEVER, priority 2014, published 2018).

Molecules are shown by their SMILES.

For assay [1], the system named is primary human melanocytes. The experiment in a line: cells. The procedure: (i) Cell Cultures: • Neonatal foreskin primary human melanocytes were procured from Life Technologies, USA. Cells were grown in Medium 254 supplemented with human melanocyte growth supplement-2 and maintained at 37° C. in a humidified incubator with 5% CO2 atmosphere. The maintenance and sub culturing of cells were carried out as per the manufacturer's instructions. Cells between passages 3-6 were used for experimentation.
(ii) Active Addition: • Cells were seeded at a density of 5×10^4/well in a 24 well plate in Melanocyte Growth Media (MGM) and incubated for 24 hrs at 37° C./5% CO2. Actives were added to cells along with relevant controls.
(iii) Cell Viability Assay • Briefly, spent media was removed and cells washed once with 0.2 ml of 1×PBS-Ca—Mg solution. Fresh 1 μM calcein-AM in PBS buffer was added to each well. Plates were incubated for 30 min. at 37° C. in a CO2 incubator. Calcein fluorescence was then measured (excitation at 490 nm and emission at 520 nm) in TECAN M1000 plate reader.
(iv) Melanin Content Assay: • After Calcein measurements, cultures were rinsed with PBS (1×) and lysed for 1 hour at 60° C. in a shaker incubator using NaOH/DMSO mix. Melanin content was measured in a Tecan plate reader (405 nm filter), corrected for cell numbers and represented as % inhibition.

A further assay addresses T1, Tyrosinase enzyme (Homo sapiens, UniProt P14679).
T1 construct: Primary human melanocytic lysate was used as a source of Tyrosinase enzyme; endogenous in cells; host or cells: primary human melanocytes (lysate)
T1 sequence (P14679 19-529): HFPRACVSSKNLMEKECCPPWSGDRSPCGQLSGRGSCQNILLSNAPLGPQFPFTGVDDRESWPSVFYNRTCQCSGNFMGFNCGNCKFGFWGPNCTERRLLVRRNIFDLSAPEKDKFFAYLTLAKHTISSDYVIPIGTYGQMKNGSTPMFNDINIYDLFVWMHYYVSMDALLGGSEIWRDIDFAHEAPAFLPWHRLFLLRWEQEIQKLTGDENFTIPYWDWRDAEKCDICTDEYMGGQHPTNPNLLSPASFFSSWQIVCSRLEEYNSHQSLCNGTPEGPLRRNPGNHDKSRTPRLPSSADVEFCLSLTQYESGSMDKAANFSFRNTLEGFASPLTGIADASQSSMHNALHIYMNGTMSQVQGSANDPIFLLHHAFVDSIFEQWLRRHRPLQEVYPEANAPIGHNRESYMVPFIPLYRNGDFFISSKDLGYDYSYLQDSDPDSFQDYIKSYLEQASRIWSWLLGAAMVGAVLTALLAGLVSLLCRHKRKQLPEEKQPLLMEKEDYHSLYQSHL
The experiment in a line: In vitro human tyrosinase activity assay (melanocytic lysate). The format is biochemical. As for the experimental part:
(v) In Vitro Human Tyrosinase Activity Assay: • Primary human melanocytic lysate was used as a source of Tyrosinase enzyme. Human melanocytic lysate and test actives (at different concentrations) were incubated together for 15 mins, prior to addition of Tyrosine/DOPA substrate mix. Assay plate was then incubated at 37° C. for ˜14-16 hrs. Optical Density was measured at 405 nm and % Inhibition calculated.

Setting [2] is: Homo sapiens, Melanocyte, 72 h, read-out: Average % inhibition in cellular melanin.

With `NC(=O)c1cccnc1` [Niacinamide, pyridine-3-carboxamide], the results for the inhibition at 1000 µM (in assay [1] (setting [2]); on Tyrosinase enzyme (1 mM Niacinamide)) were -7% and 4%, respectively. In addition, the inhibition at 10000 µM in assay [1] (setting [2]) is 16%; at Tyrosinase enzyme (10 mM Niacinamide), -8%. Further, the inhibition at 10 µM against Tyrosinase enzyme (0.01 mM Niacinamide) came to 2%. In addition, the inhibition at 100 µM against Tyrosinase enzyme (0.1 mM Niacinamide) turned out to be 2%. The inhibition at 50000 µM against Tyrosinase enzyme (50 mM Niacinamide) is -20%.
In the case of `CNC(=O)[C@H](Cc1c[nH]c2ccccc12)NC(=O)[C@@H](CC(=O)NO)CC(C)C` [Galardin, (R)—N4-Hydroxy-N1-[(S)-2-(1H-indol-3-yl)-1-methylcarbamoyl-ethyl]-2-isobutyl-succinamide], in assay [1] (setting [2]), the inhibition at 1 µM came out at 6%. Also, the inhibition at 10 µM in assay [1] (setting [2]) was 17%. The “reduction of melanin content in primary human melanocytes (in words)” value is given as “no reduction” in assay [1] (galardin by itself at 1 μM) and “modest reduction” in assay [1] (galardin by itself at 10 μM).

One may read the inhibition as the relative decrease from the control value, in per cent.
